From US20220386606A1, “SPECIFICALLY SUBSTITUTED 3-PHENYL-5-SPIROCYCLOPENTYL-3-PYRROLIN-2-ONES AND THEIR USE AS HERBICIDES” (Bayer Aktiengesellschaft, priority 2019, published 2022) come the findings set out here.

The structures appear in SMILES notation.

The subject of experiment [1] is DIGSA. The experiment is described as follows: Post-emergence herbicidal action against DIGSA. The class given is in vivo, Digitaria sanguinalis. Conditions: 80 g/ha, visual assessment about 3 weeks after treatment vs untreated controls. As for the experimental part: (§1) Seeds of monocotyledonous and dicotyledonous weed and crop plants are laid out in sandy loam soil in wood-fiber pots, covered with soil and cultivated in a greenhouse under good growth conditions. 2 to 3 weeks after sowing, the test plants are treated at the one-leaf stage. The compounds of the invention, formulated in the form of wettable powders (WP) or as emulsion concentrates (EC), are then sprayed onto the green parts of the plants as aqueous suspension or emulsion at a water application rate equating to 600 to 800 l/ha with addition of 0.2% wetting agent. After the test plants have been left to stand in the greenhouse under optimal growth conditions for about 3 weeks, the action of the preparations is assessed visually in comparison to untreated controls (herbicidal action in percent (%): 100% activity=the plants have died, 0% activity=like control plants).

Experiment [2] concerns ECHCG. The experiment can be described thus: Pre-emergence herbicidal action against ECHCG. The experiment is classed as in vivo, Echinochloa crus-galli. Conditions: 320 g/ha, scored visually after 3 weeks vs untreated controls. From the text:
(§2) Seeds of monocotyledonous and dicotyledonous weed plants and crop plants are laid out in sandy loam soil in wood-fiber pots and covered with soil. The compounds of the invention, formulated in the form of wettable powders (WP) or as emulsion concentrates (EC), are then applied to the surface of the covering soil as aqueous suspension or emulsion at a water application rate equating to 600 to 800 L/ha with addition of 0.2% wetting agent.
(§3) After the treatment, the pots are placed in a greenhouse and kept under good growth conditions for the trial plants. The damage to the test plants is scored visually after a test period of 3 weeks by comparison with untreated controls (herbicidal activity in percent (%): 100% activity=the plants have died, 0% activity=like control plants).

The test system of experiment [3] is LOLRI. The experiment is described as follows: Post-emergence herbicidal action against LOLRI. The experiment is classed as in vivo, Lolium rigidum. To be noted: 80 g/ha, visual assessment about 3 weeks after treatment vs untreated controls. As for the experimental part:
as §1

The subject of experiment [4] is SETVI. The experiment can be described thus: Post-emergence herbicidal action against SETVI. The experiment is classed as in vivo, Setaria viridis. To be noted: 80 g/ha, visual assessment about 3 weeks after treatment vs untreated controls. The procedure: as §1
Experiment [5] has as its system VIOTR. The experiment can be described thus: Pre-emergence herbicidal action against VIOTR. The experiment is classed as in vivo, Viola tricolor. To be noted: 320 g/ha.
From the text: as §2, §3

For experiment [6], the system named is ECHCG. The experiment can be described thus: Post-emergence herbicidal action against ECHCG. To be noted: 80 g/ha, visual assessment about 3 weeks after treatment vs untreated controls. The experiment is classed as in vivo, Echinochloa crus-galli. As for the experimental part:
as §1

For experiment [7], the system named is ALOMY. The experiment is described as follows: Post-emergence herbicidal action against ALOMY. Conditions: 80 g/ha, visual assessment after about 3 weeks. The experiment is classed as in vivo, Alopecurus myosuroides. As for the experimental part:
as §1

The test system of experiment [8] is AVEFA. The experiment is described as follows: Post-emergence herbicidal action against AVEFA. The experiment is classed as in vivo, Avena fatua. To be noted: 80 g/ha, visual assessment after about 3 weeks. As for the experimental part:
as §1

Experiment [9] deals with LOLRI. The experiment can be described thus: Pre-emergence herbicidal action against LOLRI (Table 8, titled post-emergence at 320 g/ha). The experiment is classed as in vivo, Lolium rigidum. To be noted: table stands in the pre-emergence section.
From the text: as §2, §3

For experiment [10], the system named is ALOMY. The experiment can be described thus: Pre-emergence herbicidal action against ALOMY. The experiment is classed as in vivo, Alopecurus myosuroides. To be noted: 320 g/ha, scored visually after 3 weeks vs untreated controls.
From the text: as §2, §3

The subject of experiment [11] is DIGSA. The experiment is described as follows: Pre-emergence herbicidal action against DIGSA. The class given is in vivo, Digitaria sanguinalis. Conditions: 320 g/ha, scored visually after 3 weeks vs untreated controls.
From the text: as §2, §3

The subject of experiment [12] is SETVI. The experiment is described as follows: Pre-emergence herbicidal action against SETVI. The experiment is classed as in vivo, Setaria viridis. To be noted: 320 g/ha, scored visually after 3 weeks vs untreated controls.
From the text: as §2, §3

Experiment [13] deals with AVEFA. The experiment is described as follows: Pre-emergence herbicidal action against AVEFA. The experiment is classed as in vivo, Avena fatua. To be noted: 320 g/ha, scored visually after 3 weeks vs untreated controls.
From the text: as §2, §3

The test system of experiment [14] is AMARE. The experiment can be described thus: Pre-emergence herbicidal action against AMARE. The class given is in vivo, Amaranthus retroflexus. To be noted: 320 g/ha.
From the text: as §2, §3

Turning to `CC#Cc1cc(C)c(C2=C(OC(=O)C(C)C)C3(CCC(COCC)C3)NC2=O)c(F)c1` (centres unmarked) [Example P-59], the “Post-emergence action against DIGSA in %” value in experiment [1] is given as 100%. Besides, the “Pre-emergence action against ECHCG in %” value in [2] is reported as 100%. The “Post-emergence action against LOLRI in %” value in experiment [3] is listed as 100%. The “Post-emergence action against SETVI in %” value in [4] was found to be 100%. The “Pre-emergence action against VIOTR in %” value in experiment [5] is given as 100%. Also, the “Post-emergence action against ECHCG in %” value in experiment [6] turned out to be 100%. In experiment [7], the “Post-emergence action against ALOMY in %” value worked out at 100%. Besides, the “Post-emergence action against AVEFA in %” value in experiment [8] is recorded as 90%. For the same compound, in [9], the “Pre-emergence herbicidal action against LOLRI in %” value worked out at 100%. In addition, in experiment [10], the “Pre-emergence action against ALOMY in %” value came out at 100%. Moreover, the “Pre-emergence action against DIGSA in %” value in experiment [11] worked out at 100%. In [12], the “Pre-emergence action against SETVI in %” value worked out at 100%. In experiment [13], the “Pre-emergence action against AVEFA in %” value was determined as 100%.

For the compound `CC#Cc1cc(C)c(C2=C(OC(=O)C(C)C)C3(CCC(COC)C3)NC2=O)c(OC)c1` (centres unmarked) [Example P-46], the “Post-emergence action against DIGSA in %” value in experiment [1] is given as 100%. Also, the “Pre-emergence action against ECHCG in %” value in experiment [2] came to 100%. Further, in experiment [3], the “Post-emergence action against LOLRI in %” value worked out at 100%. For the same compound, in experiment [4], the “Post-emergence action against SETVI in %” value is reported as 100%. The “Pre-emergence action against VIOTR in %” value in experiment [5] turned out to be 100%. In addition, the “Post-emergence action against ECHCG in %” value in experiment [6] stood at 100%. For the same compound, in experiment [7], the “Post-emergence action against ALOMY in %” value is 100%. In [14], the “Pre-emergence action against AMARE in %” value was 100%. The “Post-emergence action against AVEFA in %” value in experiment [8] stood at 90%. In addition, the “Pre-emergence herbicidal action against LOLRI in %” value in experiment [9] worked out at 100%. In experiment [10], the “Pre-emergence action against ALOMY in %” value amounted to 100%. The “Pre-emergence action against DIGSA in %” value in [11] came to 100%. The “Pre-emergence action against SETVI in %” value in experiment [12] was 100%. In addition, the “Pre-emergence action against AVEFA in %” value in experiment [13] worked out at 100%.

For `CC#Cc1cc(C)c(C2=C(OC(=O)C(C)C)C3(CCC(COC)C3)NC2=O)c(F)c1` (centres unmarked) [Example P-57], in [1], the “Post-emergence action against DIGSA in %” value amounted to 100%. The “Pre-emergence action against ECHCG in %” value in experiment [2] is given as 100%. The “Post-emergence action against LOLRI in %” value in [3] came to 100%. Besides, the “Post-emergence action against SETVI in %” value in [4] worked out at 100%. Moreover, in [5], the “Pre-emergence action against VIOTR in %” value came out at 100%. In addition, the “Post-emergence action against ECHCG in %” value in experiment [6] is 100%. For the same compound, the “Post-emergence action against ALOMY in %” value in experiment [7] was 100%. Further, the “Pre-emergence action against AMARE in %” value in experiment [14] was found to be 80%. Further, in experiment [8], the “Post-emergence action against AVEFA in %” value came out at 90%. Moreover, in experiment [9], the “Pre-emergence herbicidal action against LOLRI in %” value worked out at 100%. Moreover, the “Pre-emergence action against ALOMY in %” value in experiment [10] is on record as 100%. Further, the “Pre-emergence action against DIGSA in %” value in experiment [11] is 100%. Also, the “Pre-emergence action against SETVI in %” value in [12] was 100%. The “Pre-emergence action against AVEFA in %” value in [13] was 80%.

Turning to `C#CCOCC1CCC2(C1)NC(=O)C(c1c(F)cc(C#CC)cc1OC)=C2OC(=O)OCC` (centres unmarked) [Example P-104], the “Post-emergence action against DIGSA in %” value in experiment [1] is reported as 90%. In addition, in experiment [2], the “Pre-emergence action against ECHCG in %” value is recorded as 100%. Moreover, the “Post-emergence action against SETVI in %” value in [4] is 100%. Moreover, the “Post-emergence action against ECHCG in %” value in experiment [6] is 100%. Further, the “Post-emergence action against ALOMY in %” value in experiment [7] is 100%. The “Pre-emergence action against AMARE in %” value in [14] amounted to 100%. The “Post-emergence action against AVEFA in %” value in experiment [8] is recorded as 90%. Moreover, in [9], the “Pre-emergence herbicidal action against LOLRI in %” value is reported as 100%. For the same compound, in experiment [10], the “Pre-emergence action against ALOMY in %” value was 100%. For the same compound, the “Pre-emergence action against DIGSA in %” value in experiment [11] was 100%. Besides, in experiment [12], the “Pre-emergence action against SETVI in %” value stood at 100%.

For `C=CCOCC1CCC2(C1)NC(=O)C(c1c(F)cc(C#CC)cc1OC)=C2O` (centres unmarked) [Example I-55], the “Pre-emergence action against ECHCG in %” value in experiment [2] is recorded as 100%. The “Post-emergence action against SETVI in %” value in [4] is 100%. In experiment [6], the “Post-emergence action against ECHCG in %” value came to 100%. In addition, the “Post-emergence action against ALOMY in %” value in experiment [7] is recorded as 100%. In experiment [14], the “Pre-emergence action against AMARE in %” value came out at 80%. Further, the “Post-emergence action against AVEFA in %” value in experiment [8] worked out at 90%. Also, the “Pre-emergence herbicidal action against LOLRI in %” value in experiment [9] is listed as 100%. For the same compound, in experiment [10], the “Pre-emergence action against ALOMY in %” value came to 100%. Besides, in [11], the “Pre-emergence action against DIGSA in %” value was found to be 100%. Also, the “Pre-emergence action against SETVI in %” value in experiment [12] is reported as 100%.
